Experimental findings from ChEMBL document CHEMBL3785021, “Isatin analogs as novel inhibitors of Candida spp. β-carbonic anhydrase enzymes” (Bioorg Med Chem, 2016) are described below.

Molecules are shown by their SMILES.

In assay [1] the target is T1, Carbonic anhydrase (Candida glabrata CBS 138, UniProt Q6FTL6).
T1 sequence (Q6FTL6 whole entry): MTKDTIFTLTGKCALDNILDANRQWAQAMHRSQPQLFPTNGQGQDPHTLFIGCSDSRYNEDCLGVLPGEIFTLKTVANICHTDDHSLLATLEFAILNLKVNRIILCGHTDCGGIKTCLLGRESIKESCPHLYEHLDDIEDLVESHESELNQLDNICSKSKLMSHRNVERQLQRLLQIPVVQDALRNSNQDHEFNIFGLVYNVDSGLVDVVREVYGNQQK
The experiment in a line: Inhibition of recombinant Candida glabrata beta carbonic anhydrase NCE103 expressed in Escherichia coli preincubated for 15 mins by stopped-flow CO2 hydration assay. The arrangement: species or system Nakaseomyces glabratus.

In assay [2] the target is T2, Carbonic anhydrase (Candida albicans (strain SC5314 / ATCC MYA-2876) (Yeast), UniProt Q5AJ71).
T2 sequence (Q5AJ71 whole entry): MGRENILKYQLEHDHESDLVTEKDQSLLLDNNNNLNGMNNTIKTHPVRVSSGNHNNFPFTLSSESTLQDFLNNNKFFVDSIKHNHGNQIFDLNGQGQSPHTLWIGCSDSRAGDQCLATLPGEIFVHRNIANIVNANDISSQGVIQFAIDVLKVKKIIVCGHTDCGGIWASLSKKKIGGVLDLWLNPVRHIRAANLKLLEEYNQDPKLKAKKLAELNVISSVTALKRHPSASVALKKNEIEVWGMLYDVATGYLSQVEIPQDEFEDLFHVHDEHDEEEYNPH
The experiment in a line: Inhibition of recombinant Candida albicans beta carbonic anhydrase NCE103 expressed in Escherichia coli preincubated for 15 mins by stopped-flow CO2 hydration assay.

Assay [3] deals with Carbonic anhydrase 2 (Homo sapiens, UniProt P00918). The experiment in a line: Inhibition of recombinant human carbonic anhydrase 2 expressed in Escherichia coli preincubated for 15 mins by stopped-flow CO2 hydration assay.
Assay [4] concerns the target Carbonic anhydrase 1 (Homo sapiens, UniProt P00915). The experiment in a line: Inhibition of recombinant human carbonic anhydrase 1 expressed in Escherichia coli preincubated for 15 mins by stopped-flow CO2 hydration assay.

Carbonic anhydrase 1, sequence (P00915 whole entry): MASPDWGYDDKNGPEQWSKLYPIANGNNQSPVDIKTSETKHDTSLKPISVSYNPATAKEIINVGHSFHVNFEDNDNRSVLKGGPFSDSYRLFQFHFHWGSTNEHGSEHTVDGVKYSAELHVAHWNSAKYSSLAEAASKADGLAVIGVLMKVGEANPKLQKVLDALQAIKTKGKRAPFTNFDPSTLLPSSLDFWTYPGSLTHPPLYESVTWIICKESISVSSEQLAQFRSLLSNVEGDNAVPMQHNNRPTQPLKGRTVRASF

Regarding `NS(=O)(=O)c1ccccc1/N=C1\C(=O)Nc2ccc(F)cc21`, the values for the Ki in assay [1] and in assay [2] were 55.4 nM and 91.5 nM, respectively.
In the same order, the values of `NS(=O)(=O)c1cccc(/N=C2\C(=O)Nc3ccc(Cl)cc32)c1` are 50.1 nM and 54.8 nM.
With `NS(=O)(=O)c1cccc(/N=C2\C(=O)Nc3ccc(OC(F)(F)F)cc32)c1`, the values for the Ki in assay [1] and in assay [2] were 53.5 nM and 88 nM, respectively.
Regarding `NS(=O)(=O)c1ccc(/N=C2\C(=O)Nc3ccc(F)cc32)cc1`, the values for the Ki in assay [1] and in assay [2] were 21.6 nM and 85.2 nM, respectively.
In the case of `CN1C(=O)/C(=N\c2ccc(S(N)(=O)=O)cc2)c2ccccc21`, the Ki in assay [1] turned out to be 39.7 nM; in assay [2], 75.9 nM.
In the same order, the values of `NS(=O)(=O)c1cccc(/N=C2\C(=O)Nc3ccc([N+](=O)[O-])cc32)c1` are 23.1 nM and 35.7 nM.
The matching figures for `CN1C(=O)/C(=N\c2ccc(S(N)(=O)=O)cc2)c2cc(F)ccc21`: 32.4 nM and 79.3 nM.
The matching figures for `NS(=O)(=O)c1ccc(/N=C2\C(=O)Nc3ccc(OC(F)(F)F)cc32)cc1`: 45.1 nM and 53.6 nM.
Regarding `NS(=O)(=O)c1ccc(/N=C2\C(=O)Nc3ccc([N+](=O)[O-])cc32)cc1`, the Ki came to 22.8 nM in assay [1] and 34.1 nM in assay [2].
In the same order, the values of `NS(=O)(=O)c1cccc(/N=C2\C(=O)Nc3ccccc32)c1` are 85.1 nM and 98.1 nM.
Consider `Cc1ccc2c(c1)/C(=N/c1cccc(S(N)(=O)=O)c1)C(=O)N2`, for which the Ki in assay [1] is 45.9 nM; in assay [3], 565 nM; in assay [2], 157 nM.
As to `CN1C(=O)/C(=N\c2ccc(S(N)(=O)=O)cc2)c2cc(Br)ccc21`, the figures for the Ki in assay [1] and in assay [2] were 37.1 nM and 156 nM, respectively.
In the same order, the values of `Cc1ccc2c(c1)/C(=N/c1ccc(S(N)(=O)=O)cc1)C(=O)N2` are 29.7 nM and 128 nM.
For the compound `NS(=O)(=O)c1ccc(N=C2C(=O)Nc3ccccc32)cc1`, the Ki in assay [1] stood at 48.4 nM; in assay [3], 523 nM; in assay [2] it was 86.5 nM; in assay [4], 422 nM.
For `NS(=O)(=O)c1ccccc1/N=C1\C(=O)Nc2ccccc21`, the figures for the Ki in assay [1] and in assay [2] were 66.5 nM and 136 nM, respectively.
The matching figures for `NS(=O)(=O)c1ccc(/N=C2\C(=O)Nc3ccc(Cl)cc32)cc1`: 38.2 nM and 83.3 nM.
As for `NS(=O)(=O)c1ccccc1/N=C1\C(=O)Nc2ccc(OC(F)(F)F)cc21`, the inhibition constant Ki in assay [1] came out at 154 nM; in assay [2], 295 nM.
The matching figures for `NS(=O)(=O)c1ccccc1/N=C1\C(=O)Nc2ccc(Cl)cc21`: 58.9 nM and 65.7 nM.
Turning to `CN1C(=O)/C(=N\c2ccc(S(N)(=O)=O)cc2)c2cc(Cl)ccc21`, the figures for the Ki in assay [1] and in assay [2] were 36.5 nM and 178 nM, respectively.
As to `Cc1ccc2c(c1)/C(=N/c1ccc(S(N)(=O)=O)cc1)C(=O)N2C`, the Ki in assay [1] was determined as 35.3 nM; in assay [2] it was 84.1 nM.
The matching figures for `NS(=O)(=O)c1cccc(/N=C2\C(=O)Nc3ccc(F)cc32)c1`: 45.1 nM and 61.3 nM.
In the same order, the values of `Cc1ccc2c(c1)/C(=N/c1ccccc1S(N)(=O)=O)C(=O)N2` are 62.3 nM and 139 nM.
As to `CN1C(=O)/C(=N\c2ccc(S(N)(=O)=O)cc2)c2cc([N+](=O)[O-])ccc21`, the figures for the Ki in assay [1] and in assay [2] were 16.3 nM and 21.7 nM, respectively.
